In patent US4439603A, “Anthracycline derivatives of β-rhodomycinone glycosides” (Sanraku-Ocean Co., Ltd., priority 1981, dated 1984):
Converted amounts (≈) assume the structure as drawn. One block for each molecule: values may come before it.

How the values were obtained:
L1210 leukemia cells = assay: Growth inhibition of cultured mouse leukemia L1210 cells (48 hours, viable cell count); assay type: cell-based; details: for IC50: Mus musculus, L1210, 48 h, read-out: 50% Inhibitory concentration, Growth inhibition after 48 hours; for antitumor effect on L1210 leukemia cells: result in words
Description: The L1210 cells were cultivated at 37° C. overnight and transferred to RPMI (Roswell Park Memorial Institute) 1640 medium containing 20% calf serum at their exponential growth phase so as to give a cell concentration of 4×10^4 cells/ml. The compounds of the present invention were added to the medium at a concentration of 0.01-0.25 μg/ml. Incubation was performed in a CO2 -incubator at 37° C. for 2 days and then the number of viable cells was counted.
(§1) Independently of the above-mentioned experiment, the compounds of the present invention were added to an about 5×10^5 cells/ml L1210 cell suspension in RPMI 1640 medium containing 10% calf serum at a concentration of 0.02-2.5 μg/ml. After 15 minutes, ^14 -C-uridine (0.05 μCi/ml) or ^14 C-thymidine (0.05 μCi/ml) was added to the suspension and pulse-labeling was carried out at 37° C. for 60 minutes. The reaction was stopped by addition of a cold 10% trichloroacetic acid solution and an acid-insoluble fraction was precipitated. The precipitate was washed with a cold 5% trichloroacetic acid and the radioactivity was measured.

[1] = test system: L1210 cells, DNA synthesis; assay: Inhibition of DNA synthesis (14C-thymidine incorporation) in L1210 cells; assay type: cell-based, mouse; details: RPMI 1640 with 10% calf serum, pulse-labeling 60 minutes at 37° C.; for IC50: Mus musculus, L1210, 1 h, read-out: 50% Inhibitory concentration, 14C-Thymidine (Inhibition of DNA synthesis)
Description: as §1

[2] = test system: L1210 cells, RNA synthesis; assay: Inhibition of RNA synthesis (14C-uridine incorporation) in L1210 cells; assay type: cell-based, mouse; details: RPMI 1640 with 10% calf serum, pulse-labeling 60 minutes at 37° C.; for IC50: Mus musculus, L1210, 1 h, read-out: 50% Inhibitory concentration, 14C-Uridine (Inhibition of RNA synthesis)
Description: as §1

Solubility = assay type: physicochemical
Description: Solubilities of the compounds of the present invention, β-rhodomycinone-RDA, -RDRs, and -RD are similar. […] The color of the solutions, when they are dissolved, is red or reddish yellow, which is changed to violet in alkaline solution.

[3] = Acute toxicity in mice upon a single intraabdominal injection; assay type: in vivo; details: mouse, in vivo, ip
mice = assay: as above; assay type: in vivo
[4] = L1210 cells, RPMI 1640 with 20% calf serum, 37° C., 48 hours
[5] = in acidic water, methanol, ethanol, n-butanol, acetone, ethyl acetate, chloroform, benzene, toluene, dimethylsulfoxide and methyl cellosolve

IC50 (L1210 leukemia cells; [4]): 0.01 µg/mL (≈ 0.0127 µM)
IC50 [1]: 0.45 µg/mL (≈ 0.573 µM)
IC50 [2]: 0.07 µg/mL (≈ 0.0891 µM)
Structure (SMILES): CCC1(O)CC(OC2CC(N(C)C)C(OC3CC(O)C(OC4CCC(=O)C(C)O4)C(C)O3)C(C)O2)c2c(O)c3c(c(O)c2C1O)C(=O)c1cccc(O)c1C3=O (stereo not drawn) [β-Rhodomycinone-RDC, reference compound]

Structure (SMILES): CCC1(O)CC(OC2CC(N(C)C)C(OC3CC(O)C(OC4CCC(O)C(C)O4)C(C)O3)C(C)O2)c2c(O)c3c(c(O)c2C1O)C(=O)c1cccc(O)c1C3=O (stereo not drawn) [β-Rhodomycinone-RDA]
IC50 (L1210 leukemia cells; [4]): 0.028 µg/mL (≈ 0.0355 µM)
antitumor effect on L1210 leukemia cells (L1210 leukemia cells): have an antitumor effect on L1210 leukemia cells
Solubility (Solubility; [5]): soluble
Solubility (Solubility; in water, ether and n-hexane): slightly soluble
IC50 [1]: 0.52 µg/mL (≈ 0.66 µM)
LD50 [3]: 40.6 mg/kg
IC50 [2]: 0.095 µg/mL (≈ 0.121 µM)

Structure (SMILES): CCC1(O)CC(OC2CC(N(C)C)C(OC3CC(O)C(O)C(C)O3)C(C)O2)c2c(O)c3c(c(O)c2C1O)C(=O)c1cccc(O)c1C3=O (stereo not drawn) [β-Rhodomycinone-RD]
IC50 (L1210 leukemia cells; [4]): 0.01 µg/mL (≈ 0.0148 µM)
antitumor effect on L1210 leukemia cells (L1210 leukemia cells): have an antitumor effect on L1210 leukemia cells
Solubility (Solubility; [5]): soluble
Solubility (Solubility; in water, ether and n-hexane): slightly soluble
IC50 [1]: 0.36 µg/mL (≈ 0.534 µM)
LD50 [3]: 25.5 mg/kg
IC50 [2]: 0.13 µg/mL (≈ 0.193 µM)

Structure (SMILES): CCC1(O)CC(OC2CC(N(C)C)C(OC3CC(O)C(OC4CCC(O)C(C)O4)C(C)O3)C(C)O2)c2c(O)c3c(c(O)c2C1O)C(=O)c1cccc(O)c1C3=O (stereo not drawn) [β-Rhodomycinone-RDRs]
50% Inhibitory concentration, Growth inhibition after 48 hours (L1210 leukemia cells; [4]): 0.016 µg/mL
antitumor effect on L1210 leukemia cells (L1210 leukemia cells): have an antitumor effect on L1210 leukemia cells
Solubility (Solubility; [5]): soluble
Solubility (Solubility; in water, ether and n-hexane): slightly soluble
50% Inhibitory concentration, 14C-Thymidine (Inhibition of DNA synthesis) [1]: 0.54 µg/mL
acute toxicity (LD50 value) (mice): 35.3 mg/kg
50% Inhibitory concentration, 14C-Uridine (Inhibition of RNA synthesis) [2]: 0.085 µg/mL
